The results in this text go back to US20060046976A1, “Method for increasing the bone mineral density and bone micro-architecture or connectivity of a mammal using N-acylated glucosamines” (priority 2004, published 2006).

For assay [1], the system named is ovariectomised rats. Nature of the assay: Wet weight of femurs, ovariectomised rats. It is filed as in vivo, rat. The note with it: ovariectomised animals, oral feeding of GlcNBu, 6 months. How it is done:
Sixteen ovariectomised rats (Charles River Laboratories), approximately 200 g in weight, were randomized into two groups. The control group received 200 mg of glucose, by mouth as single daily doses and the GlcNBu-treated group received 200 mg of GlcNBu by mouth, as single daily doses, for a total period of six (6) months. A similar group of non-ovariectomised animals was fed with GlcNBu or glucose at the same doses. The feeding of the compounds was done in small amounts of peanut butter which was very acceptable to the rats, which were allowed free access to water and rat chow. The animals had the BMDs of the femurs (total or global BMD) and the lumbar spines were estimated at baseline and then at, approximately 2, 4 and 6 months. Consistent position of the femurs was assured with a pre-determined grid. A Hologic 4500 DXA machine, with small animal software, was employed for the study. The animals were lightly anesthetized for each measurement.
At the end of the experiment, the animals were sacrificed, plasma was collected by cardiac puncture, and the femurs removed, fully dissected from adherent tissue and the wet weight was determined. The concentrations of Insulin-like Growth factor I (IGF-1) in the plasma, obtained at the end of the experiment, were determined by a commercial immunological method.

The subject of assay [2] is SCW-arthritis rats. As to the kind of experiment: Micro-CT three-dimensional trabecular bone measurements of proximal tibia, SCW-arthritis rats. It is filed as in vivo, Lewis type rats. The text has this: In this experiment performed and described herein, there were four groups of Lewis type rats, consisting of eight (8) animals in each group. Lewis type rats had experimental arthritis induced by a single intra-peritoneal injection of streptococcal cell wall antigen (SCW). This type of arthritis has an acute and chronic phase and affects mostly the distal joints in the hind limbs of the animals, and, less so, the knees and hips. Groups 1-3, inclusive, had inflammatory arthritis induced. The compound used in the experiment was used to supplement normal rat chow feed on a daily basis. Feed and water were unrestricted. Group I feed was supplemented with the compound shown in formula II, abbreviated as GlcNBu, at a dose of 200mg/kg/day. Group 3 feed was supplemented with GlcNBu at 20 mg/kg/day. At the end of 6 weeks, the animals were sacrificed, the femurs and tibias were excised, fixed in formalin and the BMD, micro-CT measurements, 3-dimentional measurements and two-dimentional subchondral bone analysis were carried out, by the methods detailed below. • BMD. All the dissected femurs and tibiae were scanned with dual energy x-ray absorptiometry (DXA) were measured at the distal femur, and proximal tibia using a user defined region of interest (ROI). • Micro-CT imaging protocol. The fixed left tibiae were scanned with micro-CT scanner (Explore Locus SP micro CT Scanner, GE Healthcare). The tibias were placed in a water filled specimen tube in a firmed position such that the main axis was kept as parallel as possible to the Z-axis of the micro-CT image coordinate system. The reconstructed tibia images were analyzed with MicroView 2.0 software (GE Healthcare, London, ON) in two and three dimensions. • Three-dimensional trabecular bone measurements. Three dimensional bone analyses were conducted using three selected ROIs using MicroView 2.0 analysis software. On 3D analysis, the tissue volume (3D-TV, mm3) and trabecular bone volume (3D-BV, mm3) were measured directly, and the fractional trabecular bone volume (3D-BV/TV, %) was calculated. […] Another parameter obtained is the structure model index (SMI). The SMI represented the plate-rod characteristics of trabecular structure. In this measure, a negative number is indicative of a plate-like structure containing holes, 0 represents an ideal plate-like structure while 3 represents the ideal rod (cylindrical) structure. Larger SMI values indicate that trabecular structure contains a more rod-like structure in older or diseased bone. • Three-dimensional isosurface. A 3-D isosurface image of each tibia was obtained by a volume-rendering function in MicroView to qualitatively examine the erosive damage in the bone surface. • Two-dimensional subchondral bone analysis. Three coronal sections of proximal tibia were obtained from each 3-D reconstructed tibia image: anterior, central, and posterior (1 mm apart). The subchondral trabecular bone structure and connectivity in the epiphyseal region of the proximal tibia was analyzed using an image processing and analysis system (Quantimet 570, Leica) on the 2-D micro-CT images.

Where [3] appears, read: SCW + GlcNBu High, lateral epiphysis of proximal tibia.
The mark [4] stands for this setting: SCW + GlcNBu High, medial epiphysis of proximal tibia.
Setting [5] is: SCW + GlcNBu High, metaphysis of proximal tibia.
The mark [6] stands for this setting: SCW + GlcNBu Low, lateral epiphysis of proximal tibia.
The mark [7] stands for this setting: SCW + GlcNBu Low, medial epiphysis of proximal tibia.
Where [8] appears, read: SCW + GlcNBu Low, metaphysis of proximal tibia.

On to `CCCC(=O)N[C@H]1C(O)O[C@H](CO)[C@@H](O)[C@@H]1O` (stereo partly drawn) [GlcNBu, N-butyryl-D-glucosamine], for which the femoral wet weight result in assay [1] is “increases femoral wet weight”. In addition, in assay [2] (GlcNBu treated groups, three tested areas), the “correction in SMI values compared to the untreated group” value is given as 15-33%. Moreover, the “Trabecular Bone Volume” value in assay [2] (setting [3]) turned out to be 36.9 ± 3.7%; in assay [2] (setting [4]) it was 36.3 ± 4.8%; in assay [2] (setting [5]), 32.6 ± 4.7%; in assay [2] (setting [6]), 33.7 ± 2.7%; in assay [2] (setting [7]) it was 33.1 ± 3.0%; in assay [2] (setting [8]), 34.4 ± 9.4%. The “Trabecular Number” value in assay [2] (setting [3]) turned out to be 6.0 ± 0.6; in assay [2] (setting [4]) it was 5.1 ± 0.7; in assay [2] (setting [5]) it was 8.2 ± 1.5; in assay [2] (setting [6]) it was 5.8 ± 0.5; in assay [2] (setting [7]), 5.0 ± 0.4; in assay [2] (setting [8]), 7.7 ± 1.3. Further, the “Trabecular Thickness” value in assay [2] (setting [3]) is 0.054 ± 0.008 mm; in assay [2] (setting [4]), 0.066 ± 0.014 mm; in assay [2] (setting [5]) it was 0.034 ± 0.004 mm; in assay [2] (setting [6]) it was 0.052 ± 0.008 mm; in assay [2] (setting [7]), 0.062 ± 0.011 mm; in assay [2] (setting [8]) it was 0.034 ± 0.005 mm. Also, the “trabecular bone volume, trabecular number and thickness decreases in arthritis” value in assay [2] (SCW-arthritis rats, GlcNBu 20 and 200 mg/kg/day, 2D and 3D images) is on record as “corrected by GlcNBu treatment in a dose dependent manner”. The “trabecular separation increase in SCW group” value in assay [2] (SCW-arthritis rats, GlcNBu treatment) is reported as “significantly reduced”. Further, in assay [2] (SCW-arthritis rats, low and high dose groups, p<0.05), the “increase in metaphyseal trabecular volume from Group2 to the GlcNBu treated groups” value worked out at 12%.
